Earlier results on one compound are cited in EP0534246A2, “Benzylamine derivatives and medicines with antiarrhythmic activity containing them” (BASF Aktiengesellschaft, priority 1991, dated 1993).

The series deals with K^+ATP-Kanal (Homo sapiens, UniProt Q14654). Particulars: J. Mol. Cell. Cardiol. 21, Suppl. 2, S. 9, 1989.
Sequence of K^+ATP-Kanal (Q14654 whole entry): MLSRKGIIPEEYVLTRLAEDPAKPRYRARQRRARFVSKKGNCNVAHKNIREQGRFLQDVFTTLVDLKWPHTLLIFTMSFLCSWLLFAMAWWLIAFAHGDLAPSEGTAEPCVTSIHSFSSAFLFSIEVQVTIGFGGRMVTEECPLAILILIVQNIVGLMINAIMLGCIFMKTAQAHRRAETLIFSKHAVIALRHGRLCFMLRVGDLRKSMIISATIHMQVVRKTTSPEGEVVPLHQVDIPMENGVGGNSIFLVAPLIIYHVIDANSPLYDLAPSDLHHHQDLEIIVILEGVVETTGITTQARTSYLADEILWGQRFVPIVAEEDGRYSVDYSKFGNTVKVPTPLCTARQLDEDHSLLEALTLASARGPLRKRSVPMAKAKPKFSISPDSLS
Sequence of K^+ATP-Kanal (O60706 whole entry partner): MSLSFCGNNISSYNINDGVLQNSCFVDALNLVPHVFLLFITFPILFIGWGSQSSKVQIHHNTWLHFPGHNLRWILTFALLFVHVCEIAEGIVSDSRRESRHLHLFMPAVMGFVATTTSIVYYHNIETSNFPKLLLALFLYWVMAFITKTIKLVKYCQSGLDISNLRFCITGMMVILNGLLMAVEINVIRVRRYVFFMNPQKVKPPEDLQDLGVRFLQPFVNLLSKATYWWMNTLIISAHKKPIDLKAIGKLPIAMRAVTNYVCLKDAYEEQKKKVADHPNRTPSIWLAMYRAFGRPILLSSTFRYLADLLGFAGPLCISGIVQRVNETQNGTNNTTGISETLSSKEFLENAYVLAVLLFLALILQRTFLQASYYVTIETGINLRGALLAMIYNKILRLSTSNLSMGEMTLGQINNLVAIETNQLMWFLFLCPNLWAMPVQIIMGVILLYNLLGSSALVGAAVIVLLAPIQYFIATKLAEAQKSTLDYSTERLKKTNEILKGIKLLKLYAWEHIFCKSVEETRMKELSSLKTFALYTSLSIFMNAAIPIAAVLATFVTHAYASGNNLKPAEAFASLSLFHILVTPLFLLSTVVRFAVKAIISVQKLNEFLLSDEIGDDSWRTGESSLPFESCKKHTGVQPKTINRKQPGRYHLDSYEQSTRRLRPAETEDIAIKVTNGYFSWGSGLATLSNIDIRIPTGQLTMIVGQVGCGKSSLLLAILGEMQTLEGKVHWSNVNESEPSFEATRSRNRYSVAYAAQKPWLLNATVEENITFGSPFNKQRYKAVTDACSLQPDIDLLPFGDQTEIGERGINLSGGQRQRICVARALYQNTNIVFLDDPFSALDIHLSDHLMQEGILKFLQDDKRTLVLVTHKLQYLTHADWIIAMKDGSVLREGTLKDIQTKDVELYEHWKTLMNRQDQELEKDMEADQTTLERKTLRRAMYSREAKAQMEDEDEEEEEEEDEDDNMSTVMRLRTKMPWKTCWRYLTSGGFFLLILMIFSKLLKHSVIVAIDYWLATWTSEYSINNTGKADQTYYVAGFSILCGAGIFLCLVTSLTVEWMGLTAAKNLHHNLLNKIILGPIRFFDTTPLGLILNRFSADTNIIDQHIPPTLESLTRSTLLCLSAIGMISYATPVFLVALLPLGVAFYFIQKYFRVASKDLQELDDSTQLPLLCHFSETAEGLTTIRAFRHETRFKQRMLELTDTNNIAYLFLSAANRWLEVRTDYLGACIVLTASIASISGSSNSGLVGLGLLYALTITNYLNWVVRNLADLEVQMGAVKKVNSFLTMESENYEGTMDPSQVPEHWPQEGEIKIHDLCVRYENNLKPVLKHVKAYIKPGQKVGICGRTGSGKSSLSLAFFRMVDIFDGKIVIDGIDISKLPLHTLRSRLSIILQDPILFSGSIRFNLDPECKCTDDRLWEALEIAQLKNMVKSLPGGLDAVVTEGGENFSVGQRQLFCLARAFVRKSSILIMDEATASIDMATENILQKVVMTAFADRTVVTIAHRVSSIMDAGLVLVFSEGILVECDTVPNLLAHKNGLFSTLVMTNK

As for `CCCCCC(O)CCCC(=O)O` (stereo not shown) [5-Hydroxydekanoat], the “Konzentration, bei der Wirkung gezeigt wird (Blocker des ATP-abhängigen K+-Kanals)” value was “ca. 100 um”.
